Values quoted from earlier work in patent publication US20070117750A1, “METHOD FOR ENHANCED OCULAR DRUG PENETRATION” (priority 2005, published 2007).

Assays:
[1] = topical instillation
[2] = topical ocular dose of 225 μg

SMILES | peak concentration time, aqueous humor [1] | peak concentration time, iris ciliary/body ([1]; or first time interval that can be measured) | systemic bioavailability [2]
Clc1cccc(Cl)c1N=C1NCCN1 [clonidine] | 15 min | 2 min | 
CC(C(=O)O)c1ccc(-c2ccccc2)c(F)c1 (stereo not drawn) [flurbiprofen] |  |  | 74%
